Test results: patent US20090149455A1, “Use of Triazolopyrimidines for Controlling Plant Diseases on Legumes” (Bayer CropScience AG, priority 2005, published 2009)

test: log p; type: physicochemical; conditions: not given

| SMILES | log p |
| --- | --- |
| C=C(C)CN(CC)c1c(-c2ccccc2Cl)c(Cl)nc2ncnn12 [Example 105] | 3.69 |
| C=C(C)CN(CC)c1c(-c2ccccc2)c(Cl)nc2ncnn12 [Example 106] | 3.44 |
| CC(C)(C)CNc1c(-c2ccccc2)c(Cl)nc2ncnn12 [Example 109] | 3.17 |
| Fc1c(F)c(F)c(-c2c(Cl)nc3ncnn3c2NCC(F)(F)F)c(F)c1F [Example 113] | 3 |
| CC(C)CNc1c(-c2ccccc2Cl)c(Cl)nc2ncnn12 [Example 126] | 2.97 |
| CC(C)CNc1c(-c2ccccc2)c(Cl)nc2ncnn12 [Example 127] | 2.79 |
| CC(C)Nc1c(-c2ccccc2Cl)c(Cl)nc2ncnn12 [Example 131] | 2.65 |
| CC(C)Nc1c(-c2ccc(F)c(Cl)c2)c(Cl)nc2ncnn12 [Example 140] | 2.9 |
| CC(C)Nc1c(-c2ccccc2F)c(Cl)nc2ncnn12 [Example 141] | 2.42 |
| CC(C)Nc1c(-c2ccc(F)cc2Cl)c(Cl)nc2ncnn12 [Example 142] | 2.79 |
| CC(C)Nc1c(-c2c(F)c(F)c(F)c(F)c2F)c(Cl)nc2ncnn12 [Example 144] | 3.05 |
| CC(C)Nc1c(-c2ccc(F)cc2F)c(Cl)nc2ncnn12 [Example 145] | 2.56 |
| CC(C)Nc1c(-c2ccccc2)c(Cl)nc2ncnn12 [Example 147] | 2.45 |
| CCCCNc1c(-c2ccc(F)cc2F)c(Cl)nc2ncnn12 [Example 149] | 2.9 |
| CCCNc1c(-c2ccccc2F)c(Cl)nc2ncnn12 [Example 150] | 2.43 |
| CCCNc1c(-c2c(F)c(F)c(F)c(F)c2F)c(Cl)nc2ncnn12 [Example 152] | 3.05 |
| CC(C)(C)Nc1c(-c2c(F)cc(C(F)(F)F)cc2Cl)c(Cl)nc2ncnn12 [Example 153] | 3.9 |
| CC(C)(C)Nc1c(-c2c(F)cc(F)cc2F)c(Cl)nc2ncnn12 [Example 154] | 3.05 |
| CN(C)c1c(-c2c(F)c(F)c(F)c(F)c2F)c(Cl)nc2ncnn12 [Example 155] | 2.74 |
| Fc1cccc(F)c1-c1c(Cl)nc2ncnn2c1N1CCCO1 [Example 157] | 2.07 |

| SMILES | log p |
| --- | --- |
| Cc1cc(C)c(-c2c(Cl)nc3ncnn3c2N2CCOCC2)c(C)c1 [Example 161] | 2.8 |
| CC1CN(c2c(-c3ccccc3F)c(Cl)nc3ncnn23)CC(C)O1 (stereo not drawn) [Example 162] | 2.67 |
| Fc1ccccc1-c1c(Cl)nc2ncnn2c1N1CCSCC1 [Example 165] | 2.68 |
| Fc1cc(F)c(-c2c(Cl)nc3ncnn3c2N2CCCCC2)c(F)c1 [Example 173] | 3.53 |
| CN1CCN(c2c(-c3c(F)cc(C(F)(F)F)cc3Cl)c(Cl)nc3ncnn23)CC1 [Example 174] | 1.68 |
| Fc1cc(C(F)(F)F)cc(Cl)c1-c1c(Cl)nc2ncnn2c1N1CCOCC1 [Example 175] | 3.07 |
| Fc1cc(C(F)(F)F)cc(Cl)c1-c1c(Cl)nc2ncnn2c1N1CCCCC1 [Example 177] | 4.03 |
| Fc1cc(C(F)(F)F)cc(Cl)c1-c1c(Cl)nc2ncnn2c1N1CC=CCC1 [Example 179] | 3.85 |
| CC1CC(C)CN(c2c(-c3c(F)cc(C(F)(F)F)cc3Cl)c(Cl)nc3ncnn23)C1 (stereo not drawn) [Example 180] | 4.79 |
| CC1CCCN(c2c(-c3c(F)cc(C(F)(F)F)cc3Cl)c(Cl)nc3ncnn23)C1 (stereo not drawn) [Example 181] | 4.46 |
| CC1=CCCN(c2c(-c3c(F)cc(C(F)(F)F)cc3Cl)c(Cl)nc3ncnn23)C1 [Example 183] | 4.23 |
| CN1CCN(c2c(-c3c(F)c(F)c(F)c(F)c3F)c(Cl)nc3ncnn23)CC1 [Example 197] | 1.43 |
| Fc1c(F)c(F)c(-c2c(Cl)nc3ncnn3c2N2CCCCC2)c(F)c1F [Example 198] | 3.61 |
| Fc1c(F)c(F)c(-c2c(Cl)nc3ncnn3c2N2CCOCC2)c(F)c1F [Example 199] | 2.69 |
| Fc1ccccc1-c1c(Cl)nc2ncnn2c1N1CCOCC1 [Example 200] | 2.09 |
| Fc1cc(F)c(-c2c(Cl)nc3ncnn3c2N2CCCCO2)c(F)c1 [Example 201] | 2.92 |
| Fc1cc(F)c(-c2c(Cl)nc3ncnn3c2N2CCCO2)c(F)c1 [Example 203] | 2.4 |
| Fc1ccc(-c2c(Cl)nc3ncnn3c2N2CCCCO2)c(Cl)c1 [Example 204] | 3.11 |
| CC1CN(c2c(-c3c(F)c(F)c(F)c(F)c3F)c(Cl)nc3ncnn23)CC(C)O1 (stereo not drawn) [Example 206] | 3.33 |

Results, then the molecule that gave them:

| log p | SMILES |
| --- | --- |
| 3.68 | CC1CCN(c2c(-c3c(F)cccc3Cl)c(Cl)nc3ncnn23)CC1 [Example 158] |
| 3.41 | Fc1cc(F)c(-c2c(Cl)nc3ncnn3c2N2CCC(C(F)(F)F)CC2)c(F)c1 [Example 160] |
| 2.49 | Fc1ccccc1-c1c(Cl)nc2ncnn2c1N1CCCC1 [Example 163] |
| 3.01 | Fc1ccccc1-c1c(Cl)nc2ncnn2c1N1CCCCC1 [Example 164] |
| 3.23 | Fc1ccccc1-c1c(Cl)nc2ncnn2c1N1CCC(C(F)(F)F)CC1 [Example 166] |
| 3.5 | Fc1cc(C(F)(F)F)cc(Cl)c1-c1c(Cl)nc2ncnn2c1N1CCCC1 [Example 176] |
| 4.18 | Fc1cc(C(F)(F)F)cc(Cl)c1-c1c(Cl)nc2ncnn2c1N1CCC(C(F)(F)F)CC1 [Example 178] |
| 4.37 | CC1CCN(c2c(-c3c(F)cc(C(F)(F)F)cc3Cl)c(Cl)nc3ncnn23)CC1 [Example 182] |
| 2.99 | CC1CCCN1c1c(-c2ccc(F)cc2F)c(Cl)nc2ncnn12 (stereo not drawn) [Example 184] |
| 2.62 | Fc1ccc(-c2c(Cl)nc3ncnn3c2N2CCCC2)c(F)c1 [Example 185] |
| 2.94 | Fc1ccc(-c2c(Cl)nc3ncnn3c2N2CC=CCC2)c(F)c1 [Example 186] |
| 3.9 | CC1CC(C)CN(c2c(-c3ccc(F)cc3F)c(Cl)nc3ncnn23)C1 (stereo not drawn) [Example 187] |
| 3.44 | CC1CCCCN1c1c(-c2ccc(F)cc2F)c(Cl)nc2ncnn12 (stereo not drawn) [Example 188] |
| 3.52 | CC1CCCN(c2c(-c3ccc(F)cc3F)c(Cl)nc3ncnn23)C1 (stereo not drawn) [Example 189] |
| 3.54 | CC1CCN(c2c(-c3ccc(F)cc3F)c(Cl)nc3ncnn23)CC1 [Example 190] |
| 3.8 | CC1(C)CCN(c2c(-c3ccc(F)cc3F)c(Cl)nc3ncnn23)CC1 [Example 191] |
| 3.3 | CC1=CCCN(c2c(-c3ccc(F)cc3F)c(Cl)nc3ncnn23)C1 [Example 192] |
| 3.34 | Fc1ccc(-c2c(Cl)nc3ncnn3c2N2CCC(C(F)(F)F)CC2)c(F)c1 [Example 193] |
| 3.14 | Fc1ccc(-c2c(Cl)nc3ncnn3c2N2CCCCC2)c(F)c1 [Example 194] |
| 2.19 | Fc1ccc(-c2c(Cl)nc3ncnn3c2N2CCOCC2)c(F)c1 [Example 195] |
| 2.8 | Fc1ccc(-c2c(Cl)nc3ncnn3c2N2CCSCC2)c(F)c1 [Example 196] |
| 3.11 | Fc1cccc(F)c1-c1c(Cl)nc2ncnn2c1N1CCCCC1C(F)(F)F (stereo not drawn) [Example 202] |
| 2.84 | Fc1ccc(-c2c(Cl)nc3ncnn3c2N2CCCCO2)c(F)c1 [Example 205] |

same assay, conditions: read-out: log p

| SMILES | log p |
| --- | --- |
| CC1CCN(c2c(-c3c(F)cc(F)cc3F)c(Cl)nc3ncnn23)CC1 [Example 156, 5-Chloro-7-(4-methylpiperidin-1-yl)-6-(2,4,6-trifluorophenyl)[1,2,4]triazolo[1,5-a]-pyrimidine] | 3.6 |
